Assay results taken from patent US7371766B2, “Curcumin analogs with anti-tumor and anti-angiogenic properties” (Emory University, priority 1999, dated 2008).
Like-named read-outs stand apart in the source and are kept apart here.

Assays:
[1] = tested on: PC-3; experiment: cells; settings: Homo sapiens, PC-3, 48 h; for GI50: read-out: Median Growth Inhibitory Concentration (GI50); for CC50: read-out: Median Lethal Concentration (LC50)
[2] = tested on: BT-549; experiment: cells; settings: Homo sapiens, BT-549, 48 h; for GI50: read-out: Median Growth Inhibitory Concentration (GI50); for CC50: read-out: Median Lethal Concentration (LC50)
[3] = tested on: NCI/ADR-RES; experiment: cells; settings: Homo sapiens, 48 h; for GI50: read-out: Median Growth Inhibitory Concentration (GI50); for CC50: read-out: Median Lethal Concentration (LC50)
[4] = tested on: COLO 205; experiment: cells; settings: Homo sapiens, COLO 205, 48 h; for GI50: read-out: Median Growth Inhibitory Concentration (GI50); for CC50: read-out: Median Lethal Concentration (LC50)
[5] = tested on: NCI-H226; experiment: cells; settings: Homo sapiens, NCI-H226, 48 h; for GI50: read-out: Median Growth Inhibitory Concentration (GI50); for CC50: read-out: Median Lethal Concentration (LC50)
[6] = tested on: DU-145; experiment: cells; settings: Homo sapiens, DU-145, 48 h; for GI50: read-out: Median Growth Inhibitory Concentration (GI50); for CC50: read-out: Median Lethal Concentration (LC50)
[7] = tested on: U251; experiment: cells; settings: Homo sapiens, U-251, 48 h; for GI50: read-out: Median Growth Inhibitory Concentration (GI50); for CC50: read-out: Median Lethal Concentration (LC50)
[8] = tested on: A498; experiment: cells; settings: Homo sapiens, A498, 48 h; for GI50: read-out: Median Growth Inhibitory Concentration (GI50); for CC50: read-out: Median Lethal Concentration (LC50)
[9] = tested on: MALME-3M; experiment: cells; settings: Homo sapiens, 48 h; for GI50: read-out: Median Growth Inhibitory Concentration (GI50); for CC50: read-out: Median Lethal Concentration (LC50)
[10] = tested on: SK-MEL-2; experiment: cells; settings: Homo sapiens, SK-MEL-2, 48 h; for GI50: read-out: Median Growth Inhibitory Concentration (GI50); for CC50: read-out: Median Lethal Concentration (LC50)
[11] = tested on: HT29; experiment: cells; settings: Homo sapiens, HT-29, 48 h; for GI50: read-out: Median Growth Inhibitory Concentration (GI50); for CC50: read-out: Median Lethal Concentration (LC50)
[12] = tested on: SNB-75; experiment: cells; settings: Homo sapiens, SNB-75, 48 h; for GI50: read-out: Median Growth Inhibitory Concentration (GI50); for CC50: read-out: Median Lethal Concentration (LC50)
[13] = tested on: HCT-15; experiment: cells; settings: Homo sapiens, HCT-15, 48 h; for GI50: read-out: Median Growth Inhibitory Concentration (GI50); for CC50: read-out: Median Lethal Concentration (LC50)
[14] = tested on: UACC-62; experiment: cells; settings: Homo sapiens, UACC-62, 48 h; for GI50: read-out: Median Growth Inhibitory Concentration (GI50); for CC50: read-out: Median Lethal Concentration (LC50)
[15] = tested on: T-47D; experiment: cells; settings: Homo sapiens, T47D, 48 h; for GI50: read-out: Median Growth Inhibitory Concentration (GI50); for CC50: read-out: Median Lethal Concentration (LC50)
[16] = tested on: RXF 393; experiment: cells; settings: Homo sapiens, RXF 393, 48 h; for GI50: read-out: Median Growth Inhibitory Concentration (GI50); for CC50: read-out: Median Lethal Concentration (LC50)
[17] = tested on: SF-268; experiment: cells; settings: Homo sapiens, SF-268, 48 h; for GI50: read-out: Median Growth Inhibitory Concentration (GI50); for CC50: read-out: Median Lethal Concentration (LC50)
[18] = tested on: SN12C; experiment: cells; settings: Homo sapiens, 48 h; for GI50: read-out: Median Growth Inhibitory Concentration (GI50); for CC50: read-out: Median Lethal Concentration (LC50)
[19] = tested on: HL-60 (TB); experiment: cells; settings: Homo sapiens, HL-60, 48 h; for GI50: read-out: Median Growth Inhibitory Concentration (GI50); for CC50: read-out: Median Lethal Concentration (LC50)
[20] = tested on: UACC-257; experiment: cells; settings: Homo sapiens, UACC-257, 48 h; for GI50: read-out: Median Growth Inhibitory Concentration (GI50); for CC50: read-out: Median Lethal Concentration (LC50)
[21] = tested on: HOP-62; experiment: cells; settings: Homo sapiens, HOP-62, 48 h; for GI50: read-out: Median Growth Inhibitory Concentration (GI50)
[22] = tested on: Sixty human tumor cell lines; settings: NCI Anti-Tumor Screen, several cell types
[23] = tested on: ACHN; experiment: cells; settings: Homo sapiens, 48 h; for GI50: read-out: Median Growth Inhibitory Concentration (GI50); for CC50: read-out: Median Lethal Concentration (LC50)
[24] = tested on: MDA-MB-231; experiment: cells; settings: Homo sapiens, MDA-MB-231, 48 h; for GI50: read-out: Median Growth Inhibitory Concentration (GI50); for CC50: read-out: Median Lethal Concentration (LC50)
[25] = tested on: TK-10; experiment: cells; settings: Homo sapiens, TK-10, 48 h; for GI50: read-out: Median Growth Inhibitory Concentration (GI50); for CC50: read-out: Median Lethal Concentration (LC50)
[26] = tested on: SNB-19; experiment: cells; settings: Homo sapiens, SNB-19, 48 h; for GI50: read-out: Median Growth Inhibitory Concentration (GI50); for CC50: read-out: Median Lethal Concentration (LC50)
[27] = tested on: NCI-H522; experiment: cells; settings: Homo sapiens, NCI-H522, 48 h; for GI50: read-out: Median Growth Inhibitory Concentration (GI50); for CC50: read-out: Median Lethal Concentration (LC50)
[28] = tested on: M14; experiment: cells; settings: Homo sapiens, M14, 48 h; for GI50: read-out: Median Growth Inhibitory Concentration (GI50); for CC50: read-out: Median Lethal Concentration (LC50)
[29] = tested on: RPMI-7951 human melanoma; experiment: Neutral Red Assay, cell viability, RPMI-7951; settings: Homo sapiens
Method: RPMI-795 1, MDA-MB-231 and MDA-MB-435 cell lines were cultured in MEM-alpha medium (GIBCO-BRL, Long Island, N.Y.) containing 10% fetal bovine serum (RPMI-7951, MDA-MB-231) or 5% FBS (MDA-MB-435) at 37° C. and under 5% CO2/95% air. […] The cells were cultured in 48 well plates in all of the experiments described.
Neutral Red Assay was utilized to determine the effect of the compounds of the present invention on cell viability. Neutral Red was purchased from GIBCO-BRL (Long Island, N.Y.). Cells were plated at a concentration of 20,000 cells/well and cultured overnight. Compounds or vehicle (DMSO 0.1%) were then added and the plates were incubated for 72 hours. Supernatant from each well was either aspirated or collected and media containing Neutral Red (GIBCO-BRL, Long Island, N.Y.) at a concentration of 15 μl/ml was then added to each well. The plates were then incubated at 37° C. for 30 minutes. Next, the cells were washed with twice with PBS and alcoholic-HCl (0.5N—HCl/35% ethanol) was added to each well. The plates were then placed on a plate shaker until all residues were solubilized (pink color). The solubilized mixtures were then transferred to a 96 well plate and the absorbances were read on a micro-test plate reader at a wavelength of 570 nm.
Cell viability was determined by Neutral Red Assay.

[30] = RPMI-7951, 72 h, read-out: Neutral Red Uptake, %
[31] = RPMI-7951, read-out: Cell Viability

SMILES: CC(=O)O.O=C1C(=Cc2ccccc2F)CNCC1=Cc1ccccc1F [EF24, 3,5-Bis-(2-fluorobenzylidene)-piperidin-4-one-acetate]
- GI50 [1]: 0.3 µM
- CC50 [1]: 7.2 µM
- GI50 [2]: 0.7 µM
- CC50 [2]: 4.7 µM
- GI50 [3]: 0.9 µM
- CC50 [3]: 60.6 µM
- GI50 [4]: 0.8 µM
- CC50 [4]: 8 µM
- GI50 [5]: 3.6 µM
- CC50 [5]: 48.3 µM
- GI50 [6]: 0.7 µM
- CC50 [6]: 5.4 µM
- GI50 [7]: 0.2 µM
- CC50 [7]: 0.8 µM
- GI50 [8]: 0.9 µM
- CC50 [8]: 3.4 µM
- GI50 [9]: 2.3 µM
- CC50 [9]: 25.2 µM
- GI50 [10]: 2.6 µM
- CC50 [10]: 19.5 µM
- GI50 [11]: 0.3 µM
- CC50 [11]: 57.3 µM
- GI50 [12]: 2 µM
- CC50 [12]: 8.8 µM
- GI50 [13]: 0.2 µM
- CC50 [13]: 13.6 µM
- GI50 [14]: 1.6 µM
- CC50 [14]: 4.5 µM
- GI50 [15]: 1.3 µM
- CC50 [15]: 51.9 µM
- GI50 [16]: 0.6 µM
- CC50 [16]: 3.6 µM
- GI50 [17]: 0.6 µM
- CC50 [17]: 55.6 µM
- GI50 [18]: 1 µM
- CC50 [18]: 5.4 µM
- GI50 [19]: 0.4 µM
- CC50 [19]: > 100 µM
- GI50 [20]: 1.8 µM
- CC50 [20]: 13.5 µM
- GI50 [21]: 0.7 µM
- GI50 compared with CISPLATIN, in words [22]: lower GI50 than the chemotherapeutic agent CISPLATIN for several cell types
- LC50 compared with CISPLATIN, in words [22]: lower LC50 than the chemotherapeutic agent CISPLATIN for several cell types
- GI50 [23]: 1.1 µM
- CC50 [23]: 5.6 µM
- GI50 [24]: 1.3 µM
- CC50 [24]: 9.1 µM
- GI50 [25]: 3.1 µM
- CC50 [25]: 27.8 µM
- GI50 [26]: 0.7 µM
- CC50 [26]: 19.3 µM
- GI50 [27]: 0.9 µM
- CC50 [27]: 22.9 µM
- GI50 [28]: 1.2 µM
- CC50 [28]: 27.7 µM

SMILES: O=C(C=Cc1ccc(F)cc1F)C=Cc1ccc(F)cc1F [EF9, 1,5-Bis(2,4-difluorophenyl)penta-1,4-dien-3-one]
- GI50 [1]: 4.8 µM
- CC50 [1]: 41 µM
- GI50 [2]: 6.5 µM
- CC50 [2]: 47.3 µM
- GI50 [3]: 30.7 µM
- CC50 [3]: > 100 µM
- GI50 [4]: 7.6 µM
- CC50 [4]: 52.8 µM
- GI50 [5]: 24.3 µM
- CC50 [5]: > 100 µM
- GI50 [6]: 2.1 µM
- CC50 [6]: 29 µM
- GI50 [7]: 2.1 µM
- CC50 [7]: 12.9 µM
- GI50 [8]: 2.4 µM
- CC50 [8]: 23 µM
- viability at 5 µM [29, 30]: 88%
- viability at 20 µM [29, 30]: 11%
- viability at 5 µM [29, 31]: 92%
- viability at 20 µM [29, 31]: 70%
- GI50 [9]: 17.8 µM
- CC50 [9]: 73.4 µM
- GI50 [10]: 14.5 µM
- CC50 [10]: 58.9 µM
- GI50 [11]: 4.1 µM
- CC50 [11]: 41.9 µM
- GI50 [12]: 11.2 µM
- CC50 [12]: 48.8 µM
- GI50 [13]: 4.9 µM
- CC50 [13]: 64.7 µM
- GI50 [14]: 13.9 µM
- CC50 [14]: 52.8 µM
- GI50 [15]: 4.4 µM
- CC50 [15]: 56.1 µM
- GI50 [16]: 2.3 µM
- CC50 [16]: 17.9 µM
- GI50 [17]: 13.7 µM
- CC50 [17]: > 100 µM
- GI50 [18]: 17.1 µM
- CC50 [18]: 62.3 µM
- GI50 [19]: 4.2 µM
- CC50 [19]: > 100 µM
- GI50 [20]: 16 µM
- CC50 [20]: 62.1 µM
- GI50 [21]: 16.6 µM
- CC50 ([21]; read-out: Median Lethal Concentration (LC50)): 60.7 µM
- LC50 compared with CISPLATIN, in words [22]: lower LC50 than the chemotherapeutic agent CISPLATIN for several cell types
- GI50 [23]: 16.5 µM
- CC50 [23]: 54.8 µM
- GI50 [24]: 14.1 µM
- CC50 [24]: 57.7 µM
- GI50 [25]: 17.9 µM
- CC50 [25]: 56.5 µM
- GI50 [26]: 14.7 µM
- CC50 [26]: 58.8 µM
- GI50 [27]: 13.4 µM
- CC50 [27]: 57.1 µM
- GI50 [28]: 4.1 µM
- CC50 [28]: 48.6 µM
